Results taken from ChEMBL document CHEMBL1139146, “An analogue of AICAR with dual inhibitory activity against WNV and HCV NTPase/helicase: synthesis and in vitro screening of 4-carbamoyl-5-(4,6-diamino-2,5-dihydro-1,3,5-triazin-2-yl)imidazole-1-beta-D-ribofuranoside” (Bioorg Med Chem Lett, 2007).
The source made the active and inactive calls. The calls are words filed in the database; no cut-off is given here.

Experiments:
[1] = Inhibition of helicase activity of West Nile virus NTPase/helicase expressed in Vero E6 cells using DNA substrate; assay type: cell-based
[2] = Inhibition of helicase activity of Dengue virus NTPase/helicase expressed in Escherichia coli using DNA substrate
[3] = test system: Dengue virus; assay: Inhibition of helicase activity of Dengue virus NTPase/helicase expressed in Escherichia coli using RNA substrate
[4] = Inhibition of helicase activity of Hepatitis C virus NTPase/helicase expressed in Escherichia coli using DNA substrate; design: species or system Hepacivirus hominis
[5] = Inhibition of helicase activity of Japanese encephalitis virus NTPase/helicase expressed in Escherichia coli using DNA substrate
[6] = test system: Hepacivirus hominis; assay: Inhibition of helicase activity of Hepatitis C virus NTPase/helicase expressed in Escherichia coli using RNA substrate
[7] = test system: Japanese encephalitis virus; assay: Inhibition of helicase activity of Japanese encephalitis virus NTPase/helicase expressed in Escherichia coli using RNA substrate
[8] = test system: Vero; assay: Inhibition of helicase activity of West Nile virus NTPase/helicase expressed in Vero E6 cells using RNA substrate; assay type: cell-based

## NC(=O)c1ncn([C@@H]2O[C@H](CO)[C@@H](O)[C@H]2O)c1C1N=C(N)NC(N)=N1
[1]
  IC50: 23 µM
[2]
  IC50: > 430 µM
[3]
  Activity: inactive
[4]
  IC50: 37 µM
[5]
  IC50: > 500 µM
[6]
  Activity: inactive
[7]
  Activity: inactive
[8]
  Activity: inactive
